US20170119726A1, “Stabilized Cabazitaxel Formulations” (Cipla (UK) Limited, priority 2015, published 2017)

Key:
[1] = mouse, in vivo, iv, 12 mg/kg
Procedure: (§1) DU145 cells (5×106) at their exponential growth phase were inoculated subcutaneously on the dorsal right flank in athymic female mice. […] Animals in the vehicle control group received 5 w/v % dextrose solution. Growth of prostate xenografts (tumor volume) and whole body weights were recorded twice weekly (on days 1, 3, 5, 8, 10, 15, 17, 19) during treatment period. Animals were also monitored for clinical signs and mortality everyday throughout the study. On the day of sacrifice (day 19), blood and tumors were collected from set of animals (4 animals in each time point) at stipulated time points (1, 2, 3, and 4 h post-dose). At the end of blood collection, animals were humanely euthanized by cervical dislocation and tumor in toto was harvested from all the animals, transferred to pre-labeled microcentrifuge tubes before flash freezing in liquid nitrogen.

[2] = Study 4: in-life observations (mortality, clinical signs, body weight); settings: both treatment groups, 12 mg/kg IV on days 1, 7, 13, 19, nude mice
Procedure: as §1

CO[C@H]1C(=O)[C@]2(C)[C@@H](OC)C[C@H]3OC[C@@]3(OC(C)=O)[C@H]2[C@H](OC(=O)c2ccccc2)[C@]2(O)C[C@H](OC(=O)[C@H](O)[C@@H](NC(=O)OC(C)(C)C)c3ccccc3)C(C)=C1C2(C)C [Cabazitaxel, (2α,5β,7β,10β, 13α)-4-acetoxy-13-({(2R,3S)-3[(tertbutoxycarbonyl)amino]-2-hydroxy-3-phenylpropanoyl}-oxy)-1-hydroxy-7,10-dimethoxy-9-oxo-5,20-epoxytax-11-en-2-yl benzoate]
tolerability [1]: well tolerated | mortality [2]: no mortality was observed
